% of inhibition, % of control and % of engagement data for five molecules are collected here from ChEMBL document CHEMBL5465560, “Selectivity Literature for EUbOPEN Chemogenomic Library” (2024).

For experiment [1], the target named is T1, Mitogen-activated protein kinase kinase kinase kinase 3 (Homo sapiens) (UniProt Q8IVH8).
T1 sequence (whole entry): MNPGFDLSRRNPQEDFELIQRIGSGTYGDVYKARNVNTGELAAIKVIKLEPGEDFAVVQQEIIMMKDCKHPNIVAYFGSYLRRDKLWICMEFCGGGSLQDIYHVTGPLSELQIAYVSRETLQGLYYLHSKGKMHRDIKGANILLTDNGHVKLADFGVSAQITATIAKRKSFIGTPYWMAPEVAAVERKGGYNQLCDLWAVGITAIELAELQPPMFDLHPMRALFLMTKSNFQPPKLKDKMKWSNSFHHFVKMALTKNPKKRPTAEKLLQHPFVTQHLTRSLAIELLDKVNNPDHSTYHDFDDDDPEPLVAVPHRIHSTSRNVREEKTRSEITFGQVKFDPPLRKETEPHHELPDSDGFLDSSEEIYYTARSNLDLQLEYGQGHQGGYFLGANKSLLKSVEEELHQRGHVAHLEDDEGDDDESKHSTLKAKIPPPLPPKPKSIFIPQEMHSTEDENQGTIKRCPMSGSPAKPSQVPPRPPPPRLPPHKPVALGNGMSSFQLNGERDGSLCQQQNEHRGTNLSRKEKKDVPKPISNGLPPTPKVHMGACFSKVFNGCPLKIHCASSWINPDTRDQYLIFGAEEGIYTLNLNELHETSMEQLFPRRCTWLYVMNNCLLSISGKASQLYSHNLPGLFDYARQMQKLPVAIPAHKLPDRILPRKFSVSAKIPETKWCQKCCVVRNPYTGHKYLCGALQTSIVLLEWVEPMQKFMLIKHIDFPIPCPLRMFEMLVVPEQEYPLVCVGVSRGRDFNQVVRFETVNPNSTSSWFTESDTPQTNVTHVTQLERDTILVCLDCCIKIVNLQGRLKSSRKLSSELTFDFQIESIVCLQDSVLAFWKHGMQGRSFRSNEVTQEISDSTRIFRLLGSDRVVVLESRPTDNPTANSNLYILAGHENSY
Description: Selectivity interaction (LanthaScreen Eu Kinase Binding Assay) EUB0001632a MAP4K3. To be noted: at 10 µM. For orientation: In TR-FRET formats the signal depends on donor and acceptor labels being close together.

The target in experiment [2] is T2, Dual specificity mitogen-activated protein kinase kinase 5 (Homo sapiens) (UniProt Q13163).
T2 sequence (whole entry): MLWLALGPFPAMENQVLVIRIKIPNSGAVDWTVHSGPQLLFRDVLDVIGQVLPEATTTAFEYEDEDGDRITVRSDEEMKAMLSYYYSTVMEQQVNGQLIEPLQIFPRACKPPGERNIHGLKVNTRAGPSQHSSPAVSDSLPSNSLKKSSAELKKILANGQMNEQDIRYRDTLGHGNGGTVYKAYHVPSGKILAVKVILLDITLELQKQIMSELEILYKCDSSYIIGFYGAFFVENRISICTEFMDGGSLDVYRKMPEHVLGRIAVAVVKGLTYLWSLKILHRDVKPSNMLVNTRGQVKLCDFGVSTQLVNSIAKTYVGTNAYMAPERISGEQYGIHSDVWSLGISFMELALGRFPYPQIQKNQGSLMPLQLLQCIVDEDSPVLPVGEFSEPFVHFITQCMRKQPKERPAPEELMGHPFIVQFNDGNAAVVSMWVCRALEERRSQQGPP
Description: Selectivity interaction (KinomeScan (DiscoverX)) EUB0000595a MAP2K5. The conditions noted are these: at 10 µM.

Experiment [3] deals with T3, Peripheral plasma membrane protein CASK (Homo sapiens) (UniProt O14936).
T3 sequence (whole entry): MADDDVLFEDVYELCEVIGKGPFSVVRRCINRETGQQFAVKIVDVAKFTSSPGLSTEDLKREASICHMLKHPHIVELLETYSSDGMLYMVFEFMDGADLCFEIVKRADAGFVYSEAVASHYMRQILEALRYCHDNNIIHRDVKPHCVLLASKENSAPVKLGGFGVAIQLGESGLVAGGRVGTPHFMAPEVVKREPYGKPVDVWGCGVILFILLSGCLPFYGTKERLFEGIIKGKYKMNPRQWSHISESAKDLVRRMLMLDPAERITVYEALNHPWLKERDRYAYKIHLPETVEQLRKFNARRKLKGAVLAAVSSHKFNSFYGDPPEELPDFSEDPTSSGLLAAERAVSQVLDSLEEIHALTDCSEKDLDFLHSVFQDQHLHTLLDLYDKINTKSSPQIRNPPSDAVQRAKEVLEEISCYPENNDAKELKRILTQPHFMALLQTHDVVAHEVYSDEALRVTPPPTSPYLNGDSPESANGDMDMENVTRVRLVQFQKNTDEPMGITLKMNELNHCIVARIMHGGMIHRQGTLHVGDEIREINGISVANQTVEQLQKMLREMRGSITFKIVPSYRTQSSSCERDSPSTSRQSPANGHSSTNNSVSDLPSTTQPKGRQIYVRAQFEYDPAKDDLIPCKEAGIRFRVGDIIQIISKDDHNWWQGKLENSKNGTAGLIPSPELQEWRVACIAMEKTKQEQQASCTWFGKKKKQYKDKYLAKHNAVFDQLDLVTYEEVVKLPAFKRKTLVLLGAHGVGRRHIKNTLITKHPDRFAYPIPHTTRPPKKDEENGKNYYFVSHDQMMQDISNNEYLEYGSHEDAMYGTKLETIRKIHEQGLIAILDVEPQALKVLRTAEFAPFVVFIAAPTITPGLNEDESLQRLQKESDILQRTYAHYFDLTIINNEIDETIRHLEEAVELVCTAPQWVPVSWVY
Put plainly: Selectivity interaction (KinomeScan (DiscoverX)) EUB0000666a CASK. To be noted: at 10 µM.

Experiment [4] concerns the target Cyclin-dependent kinase 16 (Homo sapiens) (UniProt Q00536). Put plainly: Selectivity interaction (ActivX KiNativ screen (kinase selectivity in THP-1 cell lysates)) EUB0000639a CDK16. To be noted: lysate. Type of experiment: subcellular.
Experiment [5] addresses T4, EKC/KEOPS complex subunit TP53RK (Homo sapiens) (UniProt Q96S44).
T4 sequence (whole entry): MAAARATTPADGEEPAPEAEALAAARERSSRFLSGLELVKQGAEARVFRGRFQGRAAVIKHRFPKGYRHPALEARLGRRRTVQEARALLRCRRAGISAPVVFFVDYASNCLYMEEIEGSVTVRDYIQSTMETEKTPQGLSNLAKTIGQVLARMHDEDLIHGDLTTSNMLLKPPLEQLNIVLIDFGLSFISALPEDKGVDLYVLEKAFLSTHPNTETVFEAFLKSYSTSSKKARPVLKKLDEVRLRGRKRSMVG
Description: Selectivity interaction (Kinase panel (KiNativ target engagement assay in Jurkat cells)) EUB0001635a TP53RK. Type of experiment: cell-based. To be noted: Selectivity number of off-targets 0.0, Selectivity number of targets 233.0, Source Knowledge https://www.sciencedirect.com/science/article/pii/S2451945619300674?via%3Dihub, at 1 µM.

The structures appear in SMILES notation.

Sequence of Cyclin-dependent kinase 16 (Homo sapiens) (Q00536 whole entry): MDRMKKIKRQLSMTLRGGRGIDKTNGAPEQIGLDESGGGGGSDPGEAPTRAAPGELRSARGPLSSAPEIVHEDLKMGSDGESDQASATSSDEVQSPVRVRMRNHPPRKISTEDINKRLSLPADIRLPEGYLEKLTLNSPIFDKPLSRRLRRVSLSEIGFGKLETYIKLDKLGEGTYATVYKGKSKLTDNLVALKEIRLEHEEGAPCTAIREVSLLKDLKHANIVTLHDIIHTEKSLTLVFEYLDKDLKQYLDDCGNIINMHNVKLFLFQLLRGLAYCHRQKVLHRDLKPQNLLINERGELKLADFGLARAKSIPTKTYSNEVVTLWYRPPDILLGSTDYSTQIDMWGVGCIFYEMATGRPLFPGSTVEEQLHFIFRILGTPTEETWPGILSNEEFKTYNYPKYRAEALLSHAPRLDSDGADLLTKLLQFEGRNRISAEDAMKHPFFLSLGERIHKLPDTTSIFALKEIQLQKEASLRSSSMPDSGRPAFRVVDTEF

For the molecule `Cn1cc(-n2cnc3c(NCc4nc5cc(Cl)c(Cl)cc5[nH]4)nc(N4CCOCC4)nc32)cn1`, the % of inhibition in experiment [1] was -14.8%.

With `COCC(=O)NC/C=C/c1ccc2ncnc(Nc3ccc(Oc4ccc(C)nc4)c(C)c3)c2c1` [CP-724714], the % of control in experiment [2] was 0.2%.

The molecule `O=C(NOC[C@H](O)CO)c1ccc(F)c(F)c1Nc1ccc(I)cc1F` came in with a % of control in experiment [3] of 67%.

On to `CC[C@@H]1[C@H](F)C(=O)N[C@@H]1COc1nccc2cc(C(N)=O)c(OC)cc12` [ZIMLOVISERTIB], for which the % of inhibition in experiment [4] (at 0.01 µM) was found to be 16.3%; in experiment [4] (at 0.04 µM), 18.2%; in experiment [4] (at 0.2 µM), 8.4%; in experiment [4] (at 1 µM), 15.9%; in experiment [4] (at 5 µM), 47.1%.

On to `C=CC(=O)Nc1ccc(C(=O)Nc2[nH]nc3c2CN(C(=O)N[C@H](CN(C)C)c2ccccc2)C3(C)C)cc1`, for which the % of engagement in experiment [5] is -14.9%.
